Source: doi:10.1101/2025.04.10.648262, “Time-resolved phenotyping at subcellular resolution reveals shared principles and key trade-offs across antimicrobial peptide activities” (bioRxiv, 2026)
Bridge positions count the residues as written; N and C are the ends. Square brackets hold non-standard residues; d marks the D form. Peptide text beside a SMILES is read from it. Nspe = C[C@H](NCC(=O)O)c1ccccc1; Nlys = NCCCCNCC(=O)O

Test system: E. coli strain (CJW7845)
Experiment: Time-lapse single-cell phenotyping of inner/outer membrane permeabilization to proteins and growth arrest in microwells
Type: cell-based, Escherichia coli
Set-up: key to Class (timing of growth arrest relative to IM permeabilization to proteins): Class I AMPs and PMs cause growth arrest predominantly associated with inner membrane (IM) permeabilization; class II compounds inhibit growth without substantial IM permeabilization
Conditions: for Class (timing of growth arrest relative to IM permeabilization to proteins) / Type (relative timing of OM and IM permeabilization) / OM-permeabilized cells among IM-permeabilized cells: 2X MIC; for Class (timing of growth arrest relative to IM permeabilization to proteins) / Type (relative timing of OM and IM permeabilization): CJW7845, M9gluCAAT, 37°C, time-lapse microscopy; for OM-permeabilized cells among IM-permeabilized cells: CJW7845, during the experiment; for OM-permeabilized cells (out of all IM-permeabilized cells): 10X MIC, CJW7845
Method: For experiments with PDMS microwells, cells were allowed to grow for ~30 min in the temperature-controlled enclosure prior to imaging. A 10X concentrated AMP solution was spiked in (at 1/10 the volume of the well) and mixed well by pipetting after ~20 min from the start of the image acquisition, without interrupting the timelapse sequence. When the uptake of SYTOX Green was monitored, SYTOX Green was included in the AMP solution and spiked in during the experiment to obtain a final concentration of SYTOX Green of 50 nM in the well. This allowed us to monitor healthy cell growth prior to AMP treatment, to rapidly set the desired AMP (or SYTOX Green) concentration from one frame to the next (unlike for flow-controlled injection systems), and to resolve the AMP-induced phenotype in real time. The current design allows for testing up to four independent conditions in parallel.
To analyse the single-cell experiments in microwells, OmniSegger software (https://github.com/tlo-bot/omnisegger), which combines SuperSegger MATLAB-based suite ([Stylianidou et al., 2016]) for cell analysis with Omnipose segmentation ([Cutler et al., 2022]), was used to first process the microscopy images by performing drift correction, cell segmentation, and cell linking. Given that AMP-treated cells can display extreme phenotypes, such as exceedingly bright and/or heterogeneous phase contrast signal (likely a result of the widely changing intracellular density upon AMP treatment) and that the software’s pre-trained model bact_phase_omni ([Cutler et al, 2022]) tended to split cells before cell division was completed, a new Omnipose model was trained from scratch starting from bact_phase_omni-generated masks that were further corrected and curated using custom-made Python scripts (screening_good_bad.py and generate_training_dataset.py). Details on the Omnipose model retraining can be found in a previous publication ([Thappeta et al., 2025]). The final model (omnipose_phase_microwells_model) and corresponding training datasets are available at https://github.com/JacobsWagnerLab/published/tree/master/Fragasso_et_al_2025 and BioImage Archive (accession number: S-BIAD1823), respectively.
MATLAB files of the linked cell trajectories output from OmniSegger were then imported, background subtracted using background_subtraction.py, which was adapted from a previous study ([Papagiannakis et al., 2025]), and converted to Python data structures (import_processing_code.py), from which cell features such as cell area, nucleoid area, mean fluorescence intensity, etc., were extracted for each cell at each frame. The exported dataframes were further processed to estimate instantaneous growth rates and were run through a series of functions to perform curation based on cell areas and instantaneous growth rates over time (post_processing_curation_functions.py). […] Represented data points were pooled from multiple replicates.
Analysis of strain CJW7845 proceeded by extracting the timings of permeabilization of the outer and inner membranes based on the mean fluorescence intensities of mScarlet-I and/or mTagBFP2 fluorescent proteins (using function get_permeabilization_time.py), cell growth arrest, and the initiation time of growth inhibition. To obtain accurate timings underlying membrane permeabilization events, information from both the signal intensity itself as well as its derivative were combined, which enabled us to accurately resolve the relevant changes in fluorescent protein signal beyond the intrinsic high-frequency noise and low-frequency photobleaching. Inner membrane permeabilization to proteins can result in two possible phenotypes when simultaneously monitoring freely diffusing periplasmic and cytoplasmic probes, depending on which membrane (outer or inner) becomes permeabilized first. When the outer membrane is first permeabilized, mScarlet-I signal is lost first, followed by mTagBFP2 when the inner membrane becomes also permeabilized. […]

Question: With `C[C@@H](c1ccccc1)N(CC(N)=O)C(=O)CN(C(=O)CN(CCCCN)C(=O)CN(C(=O)CN(C(=O)CN(CCCCN)C(=O)CN(C(=O)CN(C(=O)CN(CCCCN)C(=O)CN(C(=O)CN(C(=O)CNCCCCN)[C@@H](C)c1ccccc1)[C@@H](C)c1ccccc1)[C@@H](C)c1ccccc1)[C@@H](C)c1ccccc1)[C@@H](C)c1ccccc1)[C@@H](C)c1ccccc1)[C@@H](C)c1ccccc1` [TM1] (H-[Nlys][Nspe][Nspe][Nlys][Nspe][Nspe][Nlys][Nspe][Nspe][Nlys][Nspe][Nspe]-NH2) as the compound, how does the “Class (timing of growth arrest relative to IM permeabilization to proteins)” value read?
Answer: I

Question: What about the “Type (relative timing of OM and IM permeabilization)” value of the same compound?
Answer: B (type B AMPs and PMs permeabilize the IM well before (>10 min) the OM)

Question: What about the “OM-permeabilized cells among IM-permeabilized cells” value of the same compound?
Answer: 24/97

Question: What about the “OM-permeabilized cells (out of all IM-permeabilized cells)” value of the same compound?
Answer: 77/171

Question: `CC[C@@H](C)[C@@H](NC(=O)[C@@H](C)NC(=O)[C@@H](CCCNC(=N)N)NC(=O)[C@@H](Cc1c[nH]c2ccccc12)NC(=O)[C@@H](CCC(N)=O)NC(=O)[C@H](N)C(C)C)C(=O)N[C@H](CCCNC(=N)N)C(=O)N[C@@H](C(=O)N[C@H](CCCNC(=N)N)C(=O)N[C@@H](C(=O)N[C@@H](C(=O)N[C@H](CCCNC(=N)N)C(N)=O)[C@H](C)CC)C(C)C)C(C)C` [DJK-5] (H-[dV][dQ][dW][dR][dA][dI][dR][dV][dR][dV][dI][dR]-NH2; N-terminus and C-terminus assumed) was tested. Which “Class (timing of growth arrest relative to IM permeabilization to proteins)” value did it give?
Answer: II

Question: What about the “Type (relative timing of OM and IM permeabilization)” value of the same compound?
Answer: B (type B AMPs and PMs permeabilize the IM well before (>10 min) the OM)

Question: What about the “OM-permeabilized cells among IM-permeabilized cells” value of the same compound?
Answer: 81/151

Question: And the “Cells in which the IM became permeabilized” value (concentrations close to the MIC (2X MIC))?
Answer: > 60%

Question: With `CC[C@H](C)[C@@H]1NC(=O)CNC(=O)[C@H](CCCNC(=N)N)NC(=O)[C@H](Cc2ccc(O)cc2)NC(=O)[C@@H]2CSSC[C@H](NC1=O)C(=O)N[C@@H](Cc1ccc(O)cc1)C(=O)N[C@@H](CCCNC(=N)N)C(=O)N[C@@H](CCCNC(=N)N)C(=O)N[C@H](C(=O)N[C@@H](CCCNC(=N)N)C(N)=O)CSSC[C@H](NC(=O)[C@H](Cc1c[nH]c3ccccc13)NC(=O)[C@@H](N)CCCCN)C(=O)N[C@@H](Cc1ccccc1)C(=O)N[C@@H](CCCNC(=N)N)C(=O)N[C@@H](C(C)C)C(=O)N2` [Tac1, tachyplesin-1] (H-KWCFRVCYRGICYRRCR-NH2; disulfide 3-16, 7-12 (inferred); N-terminus assumed) as the compound, how does the “Class (timing of growth arrest relative to IM permeabilization to proteins)” value read?
Answer: I

Question: What about the “Type (relative timing of OM and IM permeabilization)” value of the same compound?
Answer: A (type A AMPs predominantly permeabilize the outer membrane (OM) within 10 min of the IM)

Question: What about the “OM-permeabilized cells among IM-permeabilized cells” value of the same compound?
Answer: 273/273

Question: What about the “OM-permeabilized cells (out of all IM-permeabilized cells)” value of the same compound?
Answer: 82/128
